What was measured:
[1] = test system: αvβ6; details: cited from earlier work
Text: The two molecules 6 and 7 were conjugated to the nonapeptide cyclo-(FRGDLAFp(NMe)K)[29] (p = D-Pro; (NMe)K = N-methyl-Lys) under mild conditions, without the assistance of any activation agent, producing the two conjugates (11 and 12, Fig. 3). Noteworthy, the arginine-glycine-aspartate (RGD) sequence in cyclic peptides is known to selectively bind αv integrins. […] Moreover, the presence of the two non-proteinogenic amino acids, na ...

[2] = molecular target: T1, integrin αvβ6 (pancreatic cancer BxPC-3 cells) (Homo sapiens, UniProt P06756+P18564); test: Competitive binding assay (gamma counting, unlabelled THP-peptide vs [68Ga]Ga-labelled peptide) on BxPC-3 cells; format: cell-based; details: for Span (best-fit value): Std. Error 0.01175 (11), 0.04901 (12), 95% CI 0.04041 to 0.08849 (11), 0.1021 to 0.3002 (12); for log IC50: non-linear regression, GraphPad Prism 9, inhibitor 0.1-5000 nM, 1 h, 37 °C, n = 4, value ± as printed in method; for LogIC50 (best-fit value): Std. Error 0.1982 (11), 0.2904 (12), 95% CI -7.123 to -6.312 (11), -7.167 to -5.993 (12); for HillSlope (best-fit value): Std. Error 0.5820 (11), 0.3994 (12), 95% CI -2.429 to -0.04897 (11), -1.659 to -0.04442 (12)
T1 construct: endogenous in cells; host or cells: BxPC-3 pancreatic cancer cells
T1 sequence (P06756 31-889 limits assumed): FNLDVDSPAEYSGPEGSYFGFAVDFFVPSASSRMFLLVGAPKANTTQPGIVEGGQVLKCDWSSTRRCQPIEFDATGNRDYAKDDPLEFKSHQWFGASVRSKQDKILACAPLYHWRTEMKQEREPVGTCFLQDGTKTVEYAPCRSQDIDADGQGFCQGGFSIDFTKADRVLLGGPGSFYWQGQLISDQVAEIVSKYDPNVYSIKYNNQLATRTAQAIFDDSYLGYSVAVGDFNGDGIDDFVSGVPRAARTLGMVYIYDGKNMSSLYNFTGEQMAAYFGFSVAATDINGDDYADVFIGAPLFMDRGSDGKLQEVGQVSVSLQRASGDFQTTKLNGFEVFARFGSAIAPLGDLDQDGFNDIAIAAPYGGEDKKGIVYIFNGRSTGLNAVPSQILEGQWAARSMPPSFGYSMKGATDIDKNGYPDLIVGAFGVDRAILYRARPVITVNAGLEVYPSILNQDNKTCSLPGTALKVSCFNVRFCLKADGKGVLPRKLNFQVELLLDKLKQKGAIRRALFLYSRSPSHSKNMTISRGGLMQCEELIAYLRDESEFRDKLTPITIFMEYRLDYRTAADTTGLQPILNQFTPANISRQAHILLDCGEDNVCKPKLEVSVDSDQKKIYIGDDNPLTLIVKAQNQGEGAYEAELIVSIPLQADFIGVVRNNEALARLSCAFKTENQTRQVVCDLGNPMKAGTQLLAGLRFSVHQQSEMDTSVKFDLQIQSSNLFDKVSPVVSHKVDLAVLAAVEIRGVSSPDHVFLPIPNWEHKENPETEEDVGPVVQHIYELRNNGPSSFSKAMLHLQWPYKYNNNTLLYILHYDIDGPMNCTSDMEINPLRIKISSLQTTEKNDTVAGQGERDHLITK
T1 sequence (P06756 891-1048 partner limits assumed): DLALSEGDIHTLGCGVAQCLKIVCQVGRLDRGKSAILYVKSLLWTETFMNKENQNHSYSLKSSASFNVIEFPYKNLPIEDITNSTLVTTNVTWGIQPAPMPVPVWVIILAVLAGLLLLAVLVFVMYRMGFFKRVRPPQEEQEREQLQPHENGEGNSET
T1 sequence (P18564 22-788): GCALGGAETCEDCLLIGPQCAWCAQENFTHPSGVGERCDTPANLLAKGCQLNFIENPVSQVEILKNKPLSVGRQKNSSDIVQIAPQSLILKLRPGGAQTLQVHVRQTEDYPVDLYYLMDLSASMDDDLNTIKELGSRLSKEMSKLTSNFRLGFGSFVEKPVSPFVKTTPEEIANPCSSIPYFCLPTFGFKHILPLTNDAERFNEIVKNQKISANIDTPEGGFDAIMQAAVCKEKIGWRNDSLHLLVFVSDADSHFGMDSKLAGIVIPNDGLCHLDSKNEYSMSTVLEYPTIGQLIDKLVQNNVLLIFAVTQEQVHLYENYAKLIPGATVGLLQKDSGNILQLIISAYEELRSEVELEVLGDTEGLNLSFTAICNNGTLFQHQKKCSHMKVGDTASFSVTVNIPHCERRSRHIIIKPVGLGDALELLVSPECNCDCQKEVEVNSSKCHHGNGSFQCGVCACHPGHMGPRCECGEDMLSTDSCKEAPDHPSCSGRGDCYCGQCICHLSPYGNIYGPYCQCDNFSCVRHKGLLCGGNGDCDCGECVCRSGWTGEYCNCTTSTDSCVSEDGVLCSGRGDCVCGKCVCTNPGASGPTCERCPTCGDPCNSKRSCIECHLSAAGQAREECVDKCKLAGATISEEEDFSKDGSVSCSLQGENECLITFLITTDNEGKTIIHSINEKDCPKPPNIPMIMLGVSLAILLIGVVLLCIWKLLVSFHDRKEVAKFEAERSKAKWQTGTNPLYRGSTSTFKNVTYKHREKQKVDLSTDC
Description: Binding of [^68Ga]Ga-Integrin αvβ6-peptide-THP (11 and 12) to αvβ6 integrin was determined in the presence of increasing concentrations of unlabelled THP-peptide conjugate (Fig. 4).
BxPC-3 were plated in 12-well plates at a density of 5 × 10^5 cells per well in 1 mL of complete culture medium, cultured overnight at 37 °C and 5% CO2. Radiolabelling with ^68Ga was done as described above, and a solution containing 15 MBq in 1.0 mL was prepared by dilution with distilled H2O. Eleven inhibitor (unlabelled peptide) concentrations were tested to estimate the IC50 value at 0.1, 0.5, 1, 5, 10, 50, 100, 250, 500, 1000, and 5000 nM. Four wells were used for each concentration (n = 4), prepared in 500 μL of complete media. Following the addition of the inhibitor, 20 μL of the radiolabelled peptide solution was added to each well, corresponding to 300 kbq per well (33 nM of the labelled peptide per well). The cells were then incubated for an hour at the same above-mentioned conditions. Following incubation, media were removed from the wells, and the cells were washed twice with cold PBS (500 μL per washing). For each well, the media and the washings were collected together. After the second wash, 500 μL of 1 M NaOH solution was added to each well to lyse the cells, and cell lysates were retrieved 10 minutes later ([…]). A final wash with PBS (500 μL per well) was undertaken and collected in the same tube as the cell lysate. All tubes (containing either medium and washings or lysate and washings) were gamma-counted using a Wallac 1282 Compugamma Universal Gamma Counter. The resulting values were analyzed using Graphpad Prism 9 software, and a non-linear regression curve was generated, from which the IC50 values (log IC50: −6.72 ± 0.20 for 11 and −6.58 ± 0.29 for 12) were obtained.

[3] = binding curve, nonlinear regression

Substance | potency and selectivity for αvβ6 (in words) [1] | IC50 ([1]; αvβ6) [nM] | Span (best-fit value) [2, 3] | log IC50 [2] | LogIC50 (best-fit value) ([2]; nonlinear regression) | HillSlope (best-fit value) ([2]; nonlinear regression) | Top (best-fit value) ([2]; binding curve, nonlinear regression, Std. Error 0.004453 (11), 0.01334 (12), 95% CI 0.1175 to 0.1358 (11), 0.2906 to 0.3446 (12)) | Bottom (best-fit value) ([2]; binding curve, nonlinear regression, Std. Error 0.01017 (11), 0.04302 (12), 95% CI 0.04141 to 0.08300 (11), 0.02951 to 0.2034 (12))
cyclo-(FRGDLAFp(NMe)K) (head to tail) [compound 10] | potent and selective binder for αvβ6 | 0.26 | – | – | – | – | – | –
cyclo-(FRGDLAFp(NMe)K)-THPs (head to tail) [compound 11, cyclo-(FRGDLAFp(NMe)K) conjugated to THP-glutaric (6)] | – | – | 0.06445 | −6.72 ± 0.20 | -6.717 | -1.239 | – | –
cyclo-(FRGDLAFp(NMe)K)-THPs (head to tail) [compound 12, cyclo-(FRGDLAFp(NMe)K) conjugated to THP-adipic (7)] | – | – | 0.2012 | −6.58 ± 0.29 | -6.580 | -0.8516 | 0.3176 | 0.1165

Reference: publication PMC9425781, “Targeting integrin αvβ6 with gallium-68 tris (hydroxypyridinone) based PET probes” (Dalton Transactions (Cambridge, England : 2003), 2022)
